# Measurements published in patent EP3025717A1, “SYNERGISTIC PHARMACEUTICAL COMPOSITION OF TWO ANALGESICS HAVING A DISTINCT PHARMACOKINETIC PROFILE” (FARMACÉUTICOS RAYERE, S.A., priority 2013, dated 2014).
# Columns and labels:
# [1] = cited from earlier work
# [2] = test system: acute inflammatory pain; assay: Formalin model of acute inflammatory pain in mice, isobolographic analysis; assay type: in vivo, ICR male mice; details: Mus musculus, ip; individual drug, intraperitoneal, 20 minutes before formalin, phase 2 (15 to 45 minutes); read-out: DE30 (dose causing 30% anti-nociceptive effect)
# Procedure: The duration of the experiment was always as short as possible, considering that the number of animals used was the minimum necessary. […] Transparent cylinders of 20 cm diameter X 40 cm high were used, with mirrors. At the start of the experiment, the mice were placed in cylinders for a period of 60 minutes to settle. After this time, the mice were removed for the administration of 20 μL formalin (3% formaldehyde solution). Immediately after formalin administration, the mouse was returned to the cylinder for observing the characteristic behaviour, which consists in counting the number of licks of the injected paw during 5-minute periods to a total time of 45 minutes. […] Groups of animals were used with an average n ≥ 6. Physiological saline solution (0.9) was administered intraperitoneally as a control of each experimental set. […] The percentage of anti-nociception was plotted according to the dose of both analgesics individually or in combination. The data of the dose-response curve were analysed by a variance analysis (ANOVA), followed by a Tukey test. […] The doses used for this assay correspond to those reported as effective in humans, considering that an average human weighs 60 kg.
# [3] = test system: COX-1 and COX-2; details: in vitro; cited from earlier work
SMILES,percentage of native drug in the faeces ([1]; faeces) [%],administered dose excreted in the urine ([1]; mostly as metabolites) [%],absolute bio-availability ([1]; oral administration) [%],Tmax ([1]; plasma) [h],increase of the maximum plasma concentrations by food ([1]; presence of food) [%],plasma concentrations observed in synovial fluid ([1]; synovial fluid),percentage of native drug in the urine ([1]; urine) [%],ED30 [2] [mg/kg],ratio Cl50COX-2/Cl50COX-1 (inhibits more the constitutive COX-1 than the COX-2) [3] [times]
"Cc1cnc(NC(=O)C2=C(O)c3ccccc3S(=O)(=O)N2C)s1 [MXC, 4-hydroxy-2-methyl-N-(5-methyl-2-thiazolyl)-2H-1,2-benzothiazine-3-carboxamide-1,1-dioxide]",1.6,43,90,5 to 6,22,40-50%,0.2,0.12 ± 0.004,–
"CC(=O)Oc1ccccc1C(=O)O [aspirin, acetylsalicylic acid]",–,–,–,–,–,–,–,–,166
